Measured values reported in ChEMBL document CHEMBL1149878, “Tetramic and tetronic acids: an update on new derivatives and biological aspects” (Bioorg Med Chem, 2008).
Values after ≈ are worked out from the molar mass of the structure shown. Where a SMILES comes first, the peptide text is derived from it. [ ]: non-standard residue; d: D form. The star is where a group is joined. X1 = COC1=CC(=O)N(C(=O)[C@@H](O*)C(C)C)[C@H]1Cc1ccccc1; NMe2Val = CC(C)[C@@H](C(=O)*)N(C)C; NMeV = CN[C@H](C(=O)O)C(C)C

How the values were obtained:
[1] = Inhibition of Escherichia coli H560 DNA gyrase
Glutamate NMDA receptor = test: Displacement of [3H]L689560 from glycine site of rat NMDA receptor; format: protein-complex assay
[2] = biological target: Glutamate NMDA receptor (Rattus norvegicus) (UniProt P35439+Q00959+Q00960+Q00961+Q62645+Q8VHN2+Q9R1M7); test: Antagonist activity at NMDA receptor in rat cortex assessed as inhibition of NMDA-induced depolarization; format: functional, tissue-based
[3] = Inhibition of HCV NS5B polymerase; parameters: species or system Hepacivirus hominis
Staphylococcus aureus [4] = test: Antimicrobial activity against Staphylococcus aureus; format: functional
[5] = Inhibition of Escherichia coli MurB
Escherichia coli = test: Antimicrobial activity against Escherichia coli; format: functional
Beta-secretase 1 = Beta-secretase 1 (Homo sapiens, UniProt P56817); test: Inhibition of BACE1 by FRET assay
Beta-secretase 1, sequence (P56817 whole entry): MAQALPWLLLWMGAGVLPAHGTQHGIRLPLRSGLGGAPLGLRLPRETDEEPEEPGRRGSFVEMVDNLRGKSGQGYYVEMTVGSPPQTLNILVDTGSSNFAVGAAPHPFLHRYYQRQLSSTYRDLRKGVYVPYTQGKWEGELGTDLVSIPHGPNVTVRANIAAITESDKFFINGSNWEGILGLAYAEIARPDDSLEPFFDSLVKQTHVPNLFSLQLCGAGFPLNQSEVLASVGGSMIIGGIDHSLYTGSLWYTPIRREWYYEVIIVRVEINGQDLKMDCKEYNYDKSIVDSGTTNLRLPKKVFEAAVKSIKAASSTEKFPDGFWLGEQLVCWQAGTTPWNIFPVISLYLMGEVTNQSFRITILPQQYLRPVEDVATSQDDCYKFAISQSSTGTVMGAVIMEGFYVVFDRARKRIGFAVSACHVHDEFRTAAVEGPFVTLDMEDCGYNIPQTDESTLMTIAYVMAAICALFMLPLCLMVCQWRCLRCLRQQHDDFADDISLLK

Enterococcus faecalis [6] = test: Growth inhibition of multidrug resistant Enterococcus faecalis; format: functional, organism-based
HeLa = test: Growth inhibition of human HeLa cells; format: functional, cell-based
Staphylococcus aureus [7] = test: Growth inhibition of multidrug resistant Staphylococcus aureus; format: functional, organism-based
[8] = biological target: M-phase inducer phosphatase 2 (Homo sapiens, UniProt P30305); test: Inhibition of cdc25B
M-phase inducer phosphatase 2, sequence (P30305 whole entry): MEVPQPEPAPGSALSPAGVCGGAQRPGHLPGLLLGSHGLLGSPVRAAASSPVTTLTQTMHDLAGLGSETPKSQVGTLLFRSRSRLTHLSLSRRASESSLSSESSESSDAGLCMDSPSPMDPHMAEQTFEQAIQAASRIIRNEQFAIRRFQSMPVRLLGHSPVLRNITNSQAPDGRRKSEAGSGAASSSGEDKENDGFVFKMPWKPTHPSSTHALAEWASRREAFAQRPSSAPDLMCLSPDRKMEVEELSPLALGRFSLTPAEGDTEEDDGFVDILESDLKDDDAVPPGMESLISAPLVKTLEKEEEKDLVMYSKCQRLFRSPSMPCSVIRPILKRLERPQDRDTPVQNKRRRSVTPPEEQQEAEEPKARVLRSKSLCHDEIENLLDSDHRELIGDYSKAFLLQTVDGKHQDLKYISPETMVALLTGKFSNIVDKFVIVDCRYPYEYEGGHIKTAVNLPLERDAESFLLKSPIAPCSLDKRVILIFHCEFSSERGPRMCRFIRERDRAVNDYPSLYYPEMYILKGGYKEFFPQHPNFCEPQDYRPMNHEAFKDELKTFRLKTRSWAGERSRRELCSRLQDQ

[9] = Selectivity for cdc25B over VHR
A549 [10] = test: Cytotoxicity against human A549 cells; format: functional, cell-based
SK-OV-3 = test: Cytotoxicity against human SK-OV-3 cells; format: functional, cell-based
SK-MEL-2 = test: Cytotoxicity against human SK-Mel-2 cells; format: functional, cell-based
XF498 = test: Cytotoxicity against human XF498 cells; format: functional, cell-based
HCT-15 = test: Cytotoxicity against human HCT15 cells; format: functional, cell-based
Clostridioides difficile = test: Antimicrobial activity against Clostridium difficile; format: functional
Phocaeicola vulgatus = test: Antimicrobial activity against Bacteroides vulgatus; format: functional
[11] = system: Streptococcus constellatus; test: Antimicrobial activity against Streptococcus constellatus; format: functional
Eubacterium limosum = test: Antimicrobial activity against Eubacterium limosum; format: functional
Bifidobacterium longum = test: Antimicrobial activity against Bifidobacterium longum; format: functional
Bacteroides sp. = test: Antimicrobial activity against Bacteroides melaninogenicus; format: functional
Fusobacterium nucleatum = test: Antimicrobial activity against Fusobacterium nucleatum; format: functional
[12] = system: Fusobacterium necrophorum; test: Antimicrobial activity against Fusobacterium necrophorum; format: functional
Bacteroides fragilis = test: Antimicrobial activity against Bacteroides fragilis; format: functional
Enterococcus [13] = test: Growth inhibition of multidrug resistant Enterococcus; format: functional
[14] = Toxicity in rat; format: organism-based; conditions: in vivo, read-out: LC50 (the source's name)
B16 = test: Cytotoxicity against mouse B16 cells; format: functional, cell-based
Plasmodium falciparum = test: Antiplasmodial activity against Plasmodium falciparum after 72 hrs; format: functional, organism-based
[15] = biological target: Human immunodeficiency virus type 1 integrase (Human immunodeficiency virus 1, UniProt Q7ZJM1); test: Inhibition of HIV1 integrase strand transfer activity
Human immunodeficiency virus type 1 integrase, sequence (Q7ZJM1 whole entry): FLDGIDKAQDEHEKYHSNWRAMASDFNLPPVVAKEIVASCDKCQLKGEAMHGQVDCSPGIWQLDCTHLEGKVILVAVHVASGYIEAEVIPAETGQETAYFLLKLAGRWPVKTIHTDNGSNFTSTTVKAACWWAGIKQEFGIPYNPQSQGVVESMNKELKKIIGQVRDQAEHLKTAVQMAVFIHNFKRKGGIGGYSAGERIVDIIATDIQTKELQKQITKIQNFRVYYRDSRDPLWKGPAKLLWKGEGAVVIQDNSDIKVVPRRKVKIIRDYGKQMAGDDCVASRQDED

L929 = test: Growth inhibition of mouse L929 cells; format: cell-based
A498 = test: Growth inhibition of human A498 cells; format: functional, cell-based
[16] = Growth inhibition of human KB3-1 cells; format: functional, cell-based; conditions: KB 3-1
HL-60 = test: Growth inhibition of human HL60 cells by MTT assay after 24 hrs; format: functional, cell-based; conditions: HL-60, 24 h
A549 [17] = test: Growth inhibition of human A549 cells by MTT assay after 24 hrs; format: functional, cell-based; conditions: A549, 24 h
Bel-7402 = test: Growth inhibition of human Bel7402 cells by MTT assay after 24 hrs; format: functional, cell-based; conditions: Bel-7402, 24 h
P388 = test: Growth inhibition of mouse P388 cells by MTT assay after 24 hrs; format: functional, cell-based; conditions: P388, 24 h
Streptococcus equinus = test: Antimicrobial activity against Streptococcus bovis A5169; format: functional
Enterococcus [18] = test: Antimicrobial activity against Enterococcus; format: functional
Legionella = test: Antimicrobial activity against Legionella; format: functional
Streptococcus pyogenes = test: Antimicrobial activity against Streptococcus pyogenes 930; format: functional
Staphylococcus aureus [19] = test: Antimicrobial activity against methicillin-resistant Staphylococcus aureus F597; format: functional
Enterococcus faecalis [20] = test: Antimicrobial activity against Enterococcus faecalis; format: functional

CC(/C=C/C(O)=C1\C(=O)CNC1=O)=C\c1ccc2ccccc2c1
IC50 [1]: 3.5 µg/mL (≈ 11 µM)

CC(/C=C/C(=O)C1=C(O)CN(C)C1=O)=C\c1ccc2ccccc2c1
IC50 [1]: 10.3 µg/mL (≈ 30.9 µM)

CC/C=C1\NC(=O)C(c2cccc(Oc3ccccc3)c2)=C1O
IC50 (Glutamate NMDA receptor): 0.7 µM | Kb [2]: 6.15 µM

CC(C)(C)CN1C(=O)C(C2=NS(=O)(=O)c3ccccc3N2)=C(O)[C@@H]1C(C)(C)C
IC50 [3]: 0.0017 µM

O=C1O/C(=C\c2cccc3ccccc23)C(O)=C1c1cc(Cl)cc(Cl)c1
MIC (Staphylococcus aureus [4]): 1 µg/mL (≈ 2.61 µM) | IC50 [5]: 21 µM | Kd [5]: 0.04 µM | MIC (Escherichia coli): 1 µg/mL (≈ 2.61 µM)

CCC(C)C1NC(=O)C(SCc2cccc(C(F)(F)F)c2)=C1O (stereo unspecified)
IC50 (Beta-secretase 1): 60 µM

C[C@@H]1CC[C@@H]2[C@H](C=C[C@@H](C)[C@@]2(C)/C(O)=C2/C(=O)[C@H]([C@H](C)O)N(C)C2=O)C1
IC50 (Enterococcus faecalis [6]): 20 µg/mL (≈ 55.3 µM) | IC90 (HeLa): 7.1 µg/mL (≈ 19.6 µM) | IC50 (Staphylococcus aureus [7]): 10 µg/mL (≈ 27.7 µM)

CCCCCCCCCCCCCCCC(=O)C1=C(O)[C@@H](COC(=O)N=C=NC(=O)OCC)OC1=O
IC50 [8]: 0.4 µM | Selectivity ratio [9]: 30

C=C1C=C(CCC/C(C)=C/C=C/[C@H](C)CC/C=C(/C)CC2OC(=O)C(C)=C2O)C(=O)N1CCC(C)C (stereo partly drawn) [(R)-SARCOTRINE A]
IC50 (A549 [10]): 3.4 µg/mL (≈ 6.86 µM) | IC50 (SK-OV-3): 3.4 µg/mL (≈ 6.86 µM) | IC50 (SK-MEL-2): 3.4 µg/mL (≈ 6.86 µM) | IC50 (XF498): 3.4 µg/mL (≈ 6.86 µM) | IC50 (HCT-15): 3.4 µg/mL (≈ 6.86 µM)

C=C1C=C(CCC/C(C)=C/C=C/[C@@H](C)CC/C=C(/C)CC2OC(=O)C(C)=C2O)C(=O)N1CCC(C)C (stereo partly drawn) [(S)-SARCOTRINE A]
IC50 (A549 [10]): 3.4 µg/mL (≈ 6.86 µM) | IC50 (SK-OV-3): 3.4 µg/mL (≈ 6.86 µM) | IC50 (SK-MEL-2): 3.4 µg/mL (≈ 6.86 µM) | IC50 (XF498): 3.4 µg/mL (≈ 6.86 µM) | IC50 (HCT-15): 3.4 µg/mL (≈ 6.86 µM)

C=C1OC(=O)/C(=C(\O)CCCCCCCCC)C1=O [AGGLOMERIN A]
MIC (Clostridioides difficile): 3.13 µg/mL (≈ 11.8 µM) | MIC (Phocaeicola vulgatus): 3.13 µg/mL (≈ 11.8 µM) | MIC [11]: 3.13 µg/mL (≈ 11.8 µM) | MIC (Eubacterium limosum): 6.25 µg/mL (≈ 23.5 µM) | MIC (Bifidobacterium longum): 6.25 µg/mL (≈ 23.5 µM) | MIC (Bacteroides sp.): 6.25 µg/mL (≈ 23.5 µM) | MIC (Fusobacterium nucleatum): 6.25 µg/mL (≈ 23.5 µM) | MIC [12]: 6.25 µg/mL (≈ 23.5 µM) | MIC (Bacteroides fragilis): 3.13 µg/mL (≈ 11.8 µM)

C/C=C/C=C/[C@@H]1C(C)=C[C@@H]2C[C@H](C)CC[C@H]2[C@]1(C)/C(O)=C1\C(=O)N[C@@H]([C@H](C)O)C1=O [CONIOSETIN]
MIC (Staphylococcus aureus [7]): 0.3 µg/mL (≈ 0.725 µM) | MIC (Enterococcus [13]): 2.5 µg/mL (≈ 6.05 µM)

CC(=O)C1=C(O)[C@@H]2[C@H]3c4c[nH]c5cccc(c45)C[C@H]3C(C)(C)N2C1=O [CYCLOPIAZONIC ACID]
LD50 [14]: 30 mg/kg

C[C@H]1C=CC2C1C[C@H]1/C=C/CC/C(O)=C3/C(=O)N[C@H](C3=O)[C@@H](O)CCNC(=O)/C=C/C=C\C[C@H]21 (stereo partly specified) [CYLINDRAMIDE]
IC50 (B16): 0.8 µg/mL (≈ 1.71 µM)

COC1=CC(=O)N(C(=O)[C@@H](OC(=O)[C@@H]2CCCN2C(=O)[C@@H]2CCCN2C(=O)[C@H](C(C)C)N(C)C(=O)[C@@H](NC(=O)[C@H](C(C)C)N(C)C)C(C)C)C(C)C)[C@H]1Cc1ccccc1 [DOLASTATIN 15] (NMe2Val-V[NMeV]PP-X1)
IC50 (Plasmodium falciparum): 0.2 µM

CC1=C[C@@H]2CC[C@@H](O)[C@H](C)[C@@H]2[C@@H](C(=O)C2=C(O)C(O)NC2=O)[C@@H]1C[C@H]1O[C@@]2(CC[C@H](C)[C@@H](c3cc(O)cc(O)c3)O2)[C@@H](C)C[C@@H]1C (stereo partly specified) [INTEGRAMYCIN]
IC50 [15]: 4 µM

CCCCCCCCC(C)CC/C(O)=C1\C(=O)[C@H](C)N(C)C1=O (stereo partly specified) [MELOPHLIN B]
IC50 (L929): < 10 µM | IC50 (A498): < 10 µM | IC50 [16]: < 10 µM | IC50 (HeLa): < 10 µM

CCCCCCCC(C)CCC/C(O)=C1\C(=O)C(C)N(C)C1=O (stereo unspecified) [MELOPHLIN C]
IC50 (L929): < 10 µM | IC50 (A498): < 10 µM | IC50 [16]: < 10 µM | IC50 (HeLa): < 10 µM

CC(C)CCCCCCCCCCC/C(O)=C1\C(=O)C(C)N(C)C1=O (stereo unspecified) [MELOPHLIN Q]
IC50 (A498): 3.4 µM

CCC(C)CCCCCCCCCC/C(O)=C1\C(=O)C(C)N(C)C1=O (stereo unspecified) [MELOPHLIN R]
IC50 (L929): < 10 µM | IC50 (A498): < 10 µM | IC50 [16]: < 10 µM | IC50 (HeLa): < 10 µM

CCn1cc(C(=O)O)c(=O)c2cc(F)c(N3CCNCC3)cc21 [NORFLOXACIN]
IC50 [1]: 1 µg/mL (≈ 3.13 µM)

CCCCCCC(C)/C(O)=C1\C(=O)[C@H]([C@H](C)O)N(C)C1=O (stereo partly specified) [PENICILLENOL A1]
IC50 (HL-60): 0.76 µM

CCCCCCC(C)/C(O)=C1\C(=O)[C@@H]([C@@H](C)O)N(C)C1=O (stereo partly specified) [PENICILLENOL A2]
IC50 (A549 [17]): > 100 µM | IC50 (Bel-7402): > 100 µM | IC50 (P388): > 100 µM

C/C=C1/C(=O)/C(=C(/O)C(C)CCCCCC)C(=O)N1C (stereo unspecified) [PENICILLENOL B1]
IC50 (HL-60): 3.2 µM | IC50 (A549 [17]): > 100 µM | IC50 (Bel-7402): > 100 µM | IC50 (P388): > 100 µM

C/C=C1\C(=O)/C(=C(/O)C(C)CCCCCC)C(=O)N1C (stereo unspecified) [PENICILLENOL B2]
IC50 (A549 [17]): > 100 µM | IC50 (Bel-7402): > 100 µM | IC50 (P388): > 100 µM

C/C=C/CCCC(C)/C(O)=C1\C(=O)[C@H]([C@H](C)O)N(C)C1=O (stereo partly specified) [PENICILLENOL C1]
IC50 (HL-60): > 100 µM | IC50 (A549 [17]): > 100 µM | IC50 (Bel-7402): > 100 µM | IC50 (P388): > 100 µM

C/C=C/CCCC(C)/C(O)=C1\C(=O)[C@@H]([C@@H](C)O)N(C)C1=O (stereo partly specified) [PENICILLENOL C2]
IC50 (HL-60): > 100 µM | IC50 (A549 [17]): > 100 µM | IC50 (Bel-7402): > 100 µM | IC50 (P388): > 100 µM

CC(/C=C/C(O)=C1/C(=O)CNC1=O)=C\[C@@H](C)[C@H]1O[C@@]2(C)O[C@@H](C=C[C@@]23CO3)[C@H]1C [TIRANDALYDIGIN]
MIC (Streptococcus equinus): 12.5 µg/mL (≈ 31.1 µM) | MIC (Enterococcus [18]): > 16 µg/mL | MIC (Legionella): > 32 µg/mL | MIC (Bacteroides fragilis): 0.5 µg/mL (≈ 1.25 µM) | MIC (Streptococcus pyogenes): 3.1 µg/mL (≈ 7.72 µM)

CC1=C[C@H]2[C@H](O)CC[C@@](C)(/C(O)=C3/C(=O)CNC3=O)[C@H]2C[C@@H]1CCC(C)C(O)/C(C)=C/CC(O)/C=C/C(C)C(O)/C=C/CC(O)/C=C/CC(O)CC1CCCN1C(=N)N (stereo partly specified) [TPU-0037 A]
MIC (Staphylococcus aureus [19]): 3.13 µg/mL (≈ 3.79 µM)

C/C(=C\CC(O)CC(O)CCC(C)C(O)C(C)C(O)CCCC(O)C(C)C(O)/C(C)=C/C(C)C(=O)/C(C)=C/C(O)C(O)CC(O)CC(OC1OC(C)C(O)C(N)C1O)C(C)CCC(O)CC(O)CCC(C)C(O)C(C)C(O)C(C)C)C(=O)C1=C(O)/C(=C/C(C)C)N(C)C1=O (stereo unspecified) [VANCORESMYCIN]
MIC (Staphylococcus aureus [4]): < 0.04 µg/mL | MIC (Enterococcus faecalis [20]): 0.3 µg/mL (≈ 0.223 µM)
